Assay results published in ChEMBL document CHEMBL2163286, “1,2,3,4-tetrahydroquinoline-based selective human neuronal nitric oxide synthase (nNOS) inhibitors: lead optimization studies resulting in the identification of N-(1-(2-(methylamino)ethyl)-1,2,3,4-tetrahydroquinolin-6-yl)thiophene-2-carboximidamide as a preclinical development candidate” (J Med Chem, 2012).

What was measured:
Nitric oxide synthase 1 = Nitric oxide synthase 1 (Homo sapiens, UniProt P29475); test: Inhibition of human nNOS expressed in Sf9 cells assessed as reduction in conversion of [3H]L-arginine to [3H]L-citrulline preincubated for 15 mins by radiometric method
[1] = biological target: Nitric oxide synthase, inducible (Homo sapiens, UniProt P35228); test: Inhibition of human recombinant iNOS expressed in Sf9 cells assessed as reduction in conversion of [3H]L-arginine to [3H]L-citrulline preincubated for 15 mins by radiometric method
[2] = biological target: Voltage-gated inwardly rectifying potassium channel KCNH2 (Homo sapiens, UniProt Q12809); test: Inhibition of human ERG expressed in HEK293 cells at -80 mV holding potential assessed as reduction in tail current amplitude by conventional patch clamp assay; format: cell-based
Nitric oxide synthase 3 = biological target: T1, Nitric oxide synthase 3 (Homo sapiens, UniProt P29474); test: Inhibition of human eNOS expressed in Sf9 cells assessed as reduction in conversion of [3H]L-arginine to [3H]L-citrulline preincubated for 15 mins by radiometric method
T1 sequence (P29474 whole entry): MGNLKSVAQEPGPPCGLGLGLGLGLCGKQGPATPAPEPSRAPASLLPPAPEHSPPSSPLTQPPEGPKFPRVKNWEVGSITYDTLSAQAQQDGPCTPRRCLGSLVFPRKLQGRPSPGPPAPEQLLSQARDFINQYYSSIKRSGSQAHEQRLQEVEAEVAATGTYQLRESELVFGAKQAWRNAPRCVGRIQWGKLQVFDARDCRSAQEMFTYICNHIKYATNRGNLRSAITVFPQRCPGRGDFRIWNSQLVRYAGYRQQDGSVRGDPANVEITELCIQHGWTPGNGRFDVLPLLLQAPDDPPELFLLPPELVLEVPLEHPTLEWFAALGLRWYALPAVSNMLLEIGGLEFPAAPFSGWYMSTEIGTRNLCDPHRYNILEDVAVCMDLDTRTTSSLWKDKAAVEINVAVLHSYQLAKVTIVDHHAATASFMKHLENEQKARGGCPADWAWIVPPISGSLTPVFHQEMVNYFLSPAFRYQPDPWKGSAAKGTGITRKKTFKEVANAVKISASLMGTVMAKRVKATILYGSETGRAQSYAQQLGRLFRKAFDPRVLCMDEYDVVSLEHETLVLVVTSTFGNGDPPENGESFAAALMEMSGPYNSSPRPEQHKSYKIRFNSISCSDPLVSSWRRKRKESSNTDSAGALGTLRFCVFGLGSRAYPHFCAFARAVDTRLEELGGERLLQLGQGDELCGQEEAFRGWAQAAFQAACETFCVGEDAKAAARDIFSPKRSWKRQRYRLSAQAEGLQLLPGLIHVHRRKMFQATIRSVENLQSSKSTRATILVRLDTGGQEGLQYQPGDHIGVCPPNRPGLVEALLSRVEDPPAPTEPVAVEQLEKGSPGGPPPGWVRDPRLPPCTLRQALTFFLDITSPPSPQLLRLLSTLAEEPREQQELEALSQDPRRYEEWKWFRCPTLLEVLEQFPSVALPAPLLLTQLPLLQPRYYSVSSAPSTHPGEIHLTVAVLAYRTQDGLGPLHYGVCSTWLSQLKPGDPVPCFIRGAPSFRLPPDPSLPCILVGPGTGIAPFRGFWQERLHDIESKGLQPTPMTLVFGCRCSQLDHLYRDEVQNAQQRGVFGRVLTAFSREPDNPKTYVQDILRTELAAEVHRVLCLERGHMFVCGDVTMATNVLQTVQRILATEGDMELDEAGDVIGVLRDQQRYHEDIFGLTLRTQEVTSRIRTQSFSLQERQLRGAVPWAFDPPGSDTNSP

Chain of Voltage-gated inwardly rectifying potassium channel KCNH2 (Q12809 whole entry): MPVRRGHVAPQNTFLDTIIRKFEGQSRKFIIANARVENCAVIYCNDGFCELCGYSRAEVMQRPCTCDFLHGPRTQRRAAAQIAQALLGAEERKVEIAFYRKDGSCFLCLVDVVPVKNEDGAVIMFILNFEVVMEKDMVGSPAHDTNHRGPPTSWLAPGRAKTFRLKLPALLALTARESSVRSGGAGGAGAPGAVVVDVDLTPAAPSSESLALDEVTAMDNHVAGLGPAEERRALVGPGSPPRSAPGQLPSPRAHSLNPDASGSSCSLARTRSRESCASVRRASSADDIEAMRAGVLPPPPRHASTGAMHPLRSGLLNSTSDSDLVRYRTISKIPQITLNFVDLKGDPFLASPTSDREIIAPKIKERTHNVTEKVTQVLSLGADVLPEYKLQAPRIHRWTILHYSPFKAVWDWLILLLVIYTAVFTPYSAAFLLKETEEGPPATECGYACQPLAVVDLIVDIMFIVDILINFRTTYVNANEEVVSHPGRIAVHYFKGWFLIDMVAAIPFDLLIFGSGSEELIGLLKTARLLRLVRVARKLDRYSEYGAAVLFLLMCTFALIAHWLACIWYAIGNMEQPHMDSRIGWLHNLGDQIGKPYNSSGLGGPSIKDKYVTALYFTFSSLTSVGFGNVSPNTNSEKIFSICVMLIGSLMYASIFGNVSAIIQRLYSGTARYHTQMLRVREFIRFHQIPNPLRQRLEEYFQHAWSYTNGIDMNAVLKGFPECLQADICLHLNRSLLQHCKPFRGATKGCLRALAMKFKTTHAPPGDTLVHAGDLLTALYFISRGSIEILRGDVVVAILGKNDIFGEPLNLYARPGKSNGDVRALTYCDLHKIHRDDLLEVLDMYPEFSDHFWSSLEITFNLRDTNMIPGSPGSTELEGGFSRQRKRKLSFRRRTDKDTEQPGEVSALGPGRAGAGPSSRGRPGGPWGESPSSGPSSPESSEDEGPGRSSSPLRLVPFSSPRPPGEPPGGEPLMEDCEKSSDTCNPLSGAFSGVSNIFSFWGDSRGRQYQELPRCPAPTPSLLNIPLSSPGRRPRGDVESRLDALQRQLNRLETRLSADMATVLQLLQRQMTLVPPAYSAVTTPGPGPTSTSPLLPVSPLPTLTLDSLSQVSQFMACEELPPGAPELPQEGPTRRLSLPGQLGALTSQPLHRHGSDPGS
Chain of Nitric oxide synthase, inducible (P35228 whole entry): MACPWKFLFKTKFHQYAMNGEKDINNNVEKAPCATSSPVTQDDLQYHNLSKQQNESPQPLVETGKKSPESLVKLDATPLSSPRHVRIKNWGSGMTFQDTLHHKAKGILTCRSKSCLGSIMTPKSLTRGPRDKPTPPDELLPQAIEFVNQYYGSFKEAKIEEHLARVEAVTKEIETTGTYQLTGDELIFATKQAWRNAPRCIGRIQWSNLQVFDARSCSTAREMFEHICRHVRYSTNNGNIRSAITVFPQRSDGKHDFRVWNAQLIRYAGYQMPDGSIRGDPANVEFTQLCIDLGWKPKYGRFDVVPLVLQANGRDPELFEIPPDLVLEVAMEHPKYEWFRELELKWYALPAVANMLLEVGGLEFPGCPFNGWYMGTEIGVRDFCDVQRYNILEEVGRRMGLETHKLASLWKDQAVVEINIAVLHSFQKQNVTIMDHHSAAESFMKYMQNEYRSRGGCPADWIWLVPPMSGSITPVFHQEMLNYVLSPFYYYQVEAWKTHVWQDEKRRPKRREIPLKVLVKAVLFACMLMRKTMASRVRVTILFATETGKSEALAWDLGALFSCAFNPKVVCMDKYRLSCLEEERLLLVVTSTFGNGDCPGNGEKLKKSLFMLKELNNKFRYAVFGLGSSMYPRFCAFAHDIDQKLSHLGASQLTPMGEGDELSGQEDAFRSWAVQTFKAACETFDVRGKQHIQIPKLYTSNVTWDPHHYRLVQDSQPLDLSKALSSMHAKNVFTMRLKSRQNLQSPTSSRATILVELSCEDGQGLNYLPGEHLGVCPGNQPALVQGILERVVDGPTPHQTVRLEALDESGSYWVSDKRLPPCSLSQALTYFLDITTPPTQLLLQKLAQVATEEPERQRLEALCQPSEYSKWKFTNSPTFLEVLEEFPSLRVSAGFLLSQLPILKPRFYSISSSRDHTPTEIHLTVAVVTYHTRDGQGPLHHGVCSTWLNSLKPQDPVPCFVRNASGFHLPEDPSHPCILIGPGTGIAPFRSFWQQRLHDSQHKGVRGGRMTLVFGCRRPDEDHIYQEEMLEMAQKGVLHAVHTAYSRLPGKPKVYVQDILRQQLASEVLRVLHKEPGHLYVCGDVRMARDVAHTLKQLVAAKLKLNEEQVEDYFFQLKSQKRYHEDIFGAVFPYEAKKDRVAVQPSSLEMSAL
Chain of Nitric oxide synthase 1 (P29475 whole entry): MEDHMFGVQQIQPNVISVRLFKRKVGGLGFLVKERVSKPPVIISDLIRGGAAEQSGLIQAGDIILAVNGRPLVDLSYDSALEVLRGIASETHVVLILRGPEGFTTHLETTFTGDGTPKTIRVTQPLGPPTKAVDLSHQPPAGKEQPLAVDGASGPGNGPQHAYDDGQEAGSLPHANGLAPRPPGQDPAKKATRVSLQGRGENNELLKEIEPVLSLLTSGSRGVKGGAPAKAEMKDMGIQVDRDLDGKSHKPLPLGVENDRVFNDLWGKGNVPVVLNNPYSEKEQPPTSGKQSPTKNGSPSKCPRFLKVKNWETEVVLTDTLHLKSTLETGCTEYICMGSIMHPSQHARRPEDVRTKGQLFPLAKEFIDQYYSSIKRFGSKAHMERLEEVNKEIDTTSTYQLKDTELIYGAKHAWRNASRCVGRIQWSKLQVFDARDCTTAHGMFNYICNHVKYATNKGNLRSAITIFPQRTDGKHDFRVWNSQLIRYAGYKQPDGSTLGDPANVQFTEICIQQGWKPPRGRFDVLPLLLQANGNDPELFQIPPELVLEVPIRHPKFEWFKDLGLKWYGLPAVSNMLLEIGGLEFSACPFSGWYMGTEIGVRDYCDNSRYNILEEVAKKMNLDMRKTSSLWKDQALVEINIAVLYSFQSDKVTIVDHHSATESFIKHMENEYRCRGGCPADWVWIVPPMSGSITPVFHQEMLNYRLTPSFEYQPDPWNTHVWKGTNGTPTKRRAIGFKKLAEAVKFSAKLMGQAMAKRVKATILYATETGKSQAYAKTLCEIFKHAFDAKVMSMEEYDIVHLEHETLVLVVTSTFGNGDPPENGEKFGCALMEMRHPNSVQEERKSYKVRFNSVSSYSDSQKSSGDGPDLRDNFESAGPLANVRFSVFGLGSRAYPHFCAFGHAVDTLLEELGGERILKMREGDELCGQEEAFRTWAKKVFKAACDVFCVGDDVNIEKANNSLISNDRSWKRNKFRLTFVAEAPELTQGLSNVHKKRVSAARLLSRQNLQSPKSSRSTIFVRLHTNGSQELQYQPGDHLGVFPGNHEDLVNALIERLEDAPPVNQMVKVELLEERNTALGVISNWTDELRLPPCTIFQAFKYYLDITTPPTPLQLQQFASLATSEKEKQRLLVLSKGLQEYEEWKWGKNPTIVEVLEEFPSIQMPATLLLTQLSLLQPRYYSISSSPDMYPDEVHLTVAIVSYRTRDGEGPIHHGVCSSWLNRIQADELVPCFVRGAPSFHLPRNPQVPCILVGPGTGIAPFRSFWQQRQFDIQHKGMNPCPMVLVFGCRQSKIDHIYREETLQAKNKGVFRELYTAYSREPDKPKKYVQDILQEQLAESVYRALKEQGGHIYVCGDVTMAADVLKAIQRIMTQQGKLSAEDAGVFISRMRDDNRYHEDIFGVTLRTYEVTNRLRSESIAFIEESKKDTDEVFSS

| IC50 (Nitric oxide synthase 1) [µM] | IC50 [1] [µM] | IC50 (Nitric oxide synthase 3) [µM] | SMILES | IC50 [2] [µM] |
| --- | --- | --- | --- | --- |
| 0.176 | – | – | CNCCN1CCCc2cc(NC(=N)c3cccs3)ccc21 | – |
| 0.169 | > 100 | 39.2 | N=C(Nc1ccc2c(c1)CCCN2CCCNCCO)c1cccs1 | > 30 |
| – | – | – | N=C(Nc1ccc2c(c1)CCCN2C1CCNC1)c1cccs1 (racemic) | > 30 |
| 0.267 | 89.4 | – | CC(C)NCCN1CCCc2cc(NC(=N)c3cccs3)ccc21 | 27.5 |
| 0.133 | > 100 | – | CN(CCO)CCN1CCCc2cc(NC(=N)c3cccs3)ccc21 | – |
